Measurements: the METLIN SMRT retention time set (Domingo-Almenara et al. 2019)

Assay: gradient 5% acetonitrile 3 min, to 50% in 2 min, to 85% in 15 min, held 3 min, 100 µL/min
Settings: column: Zorbax Extend-C18 2.1 x 50 mm; eluents: water / acetonitrile, 0.1% formic acid
In short: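 The system's dead and dwell volumes were 40 μL and 900 μL, with a Zorbax Extend-C18 column (2.1 × 50 mm, 1.8 μm) run at 100 μL/min in water and acetonitrile containing 0.1% formic acid each. Pure standards were analyzed in mixtures of ~100 molecules by HPLC–quadrupole time-of-flight mass spectrometry in positive and negative ionization mode. Retention time was assigned from computationally picked, manually inspected adduct peaks.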

Row | RP-LC retention time | Compound
1 | 600 s | CCC(=O)NCc1nc2c(n1C)CN(S(=O)(=O)c1ccc(F)cc1F)CC2
2 | 686 s | O=C(Cc1cccc(F)c1)N1CCC(n2cnnc2-c2ccccc2)C1 (stereo not drawn)
3 | 751 s | CCN1C(=O)c2ccccc2Oc2ccc(C(=O)NC3CC3)cc21
4 | 820 s | O=C(NC1CC1)c1ccc(OCC2CCCN(C(=O)c3cc(F)ccc3F)C2)cc1 (stereo not drawn)
5 | 680 s | CCCCOc1ccc(-c2cc3c4nnc(CCC(=O)N5CCN(CC)CC5)n4ccn3n2)cc1
6 | 965 s | CC1Cc2ccccc2N1C(=O)CC1CCN(S(=O)(=O)c2ccc3c(c2)oc(=O)n3C)CC1 (stereo not drawn)
7 | 802 s | O=C(CSc1nnc(NC(=O)C2CCCCC2)s1)Nc1ccc2c(c1)OCO2
8 | 907 s | Cc1ccc(C(=O)N(CC(=O)N(Cc2ccco2)CC2CCCO2)C(C)(C)C)cc1 (stereo not drawn)
9 | 875 s | Cc1ccc(-n2nc(N3CCN(C(=O)c4ccc(Br)o4)CC3)ccc2=O)cc1C
10 | 642 s | COCc1nc2ccccc2n1CC(=O)NC1CCCCC1
11 | 889 s | COc1cccc(NS(=O)(=O)c2ccc3c(c2)C(=O)N(C)c2ncccc2O3)c1
12 | 789 s | O=[N+]([O-])c1cccc(CSc2ccc3nnc(-c4cccs4)n3n2)c1
13 | 842 s | O=C1NC2(CCN(C(=O)c3ccccc3)CC2)N=C1c1ccc(Cl)cc1
14 | 635 s | COCCN(C)C(=O)c1cn(C2CN(S(=O)(=O)C(C)C)C2)nn1
15 | 663 s | Cc1c(C2CCN(C(=O)c3ccc4c(c3)OCO4)CC2)noc1N
16 | 871 s | COC(=O)C1=CN(CC(=O)N2CCN(c3ccccc3)CC2)S(=O)(=O)N=C1C
17 | 571 s | O=C(CSc1nnc(CCc2nc3ccccc3[nH]2)o1)NCc1c(F)cccc1F
18 | 880 s | COc1cc(NC(=O)c2ccc3cccc(O)c3n2)cc(OC)c1OC
19 | 824 s | O=C(Nc1ccc(F)cc1F)C1CCCN(c2ncnc3c2nc2n3CCCCC2)C1 (stereo not drawn)
20 | 679 s | Cn1cc(CCNC(=O)Nc2ccc(F)cc2)c2cccnc21
21 | 920 s | Cc1nc(-c2csc(S(=O)(=O)N3CCC(C(=O)Nc4ccc(F)cc4F)CC3)c2)no1
22 | 1270 s | CCCCCCC(=O)Nc1nc(-c2ccc(Cl)cc2)cs1

Row | RP-LC retention time | Compound
23 | 784 s | COc1ccc(C(=O)N2CCN(c3ccc(=O)n(-c4cccc(Cl)c4)n3)CC2)cc1OC
24 | 622 s | COC[C@@H]1CN(C(=O)Cn2nc(C(F)(F)F)cc2C)C[C@H]1C(N)=O
25 | 840 s | CCN1C(=O)c2cc(C(=O)N3CCN(c4ccccc4F)CC3)nn2CC1(C)C(=O)NC1CCCC1 (stereo not drawn)
26 | 885 s | CCC(C)n1nnc2cc(S(=O)(=O)N(C)CC(=O)NCCc3c[nH]c4ccccc34)ccc21 (stereo not drawn)
27 | 730 s | CCc1c(C(=O)O)nnn1-c1cc(OC)cc(OC)c1
28 | 928 s | CCc1noc(-c2cc(=O)n(CC(=O)NCc3ccc(SC)cc3)c3ccccc23)n1
29 | 766 s | O=C(Nc1ccc(-c2ccno2)cc1)C1CCN(C(=O)C2Sc3ccccc3NC2=O)CC1 (stereo not drawn)
30 | 784 s | CCCc1nc(-c2c(C)cc(C)nc2NC(=O)c2cc(C)cc(C)c2)no1
31 | 660 s | COc1ccc(-c2ncccc2CNS(=O)(=O)Cc2ccccc2F)cc1
32 | 794 s | Cc1ccc(NS(=O)(=O)c2cc3n(c2)CCN(CC(C)C)C3=O)cc1
33 | 1050 s | CCc1cc(-c2csc(S(=O)(=O)Nc3ccc(C)cc3Br)c2)on1
34 | 904 s | CC(=O)N1CCc2cc(N3CC(C(=O)NC(C)c4ccccn4)CC3=O)ccc21 (stereo not drawn)
35 | 1200 s | CCc1ccccc1NC(=O)C1CCCN(c2nc3ccccc3nc2C(F)(F)F)C1 (stereo not drawn)
36 | 865 s | O=C(NCCc1ccccc1)C1c2ccccc2C(=O)N1Cc1ccc2c(c1)OCO2 (stereo not drawn)
37 | 1090 s | Fc1ccc(-c2nnc(Cc3nc(-c4cccc(Br)c4)no3)o2)cc1
38 | 1020 s | CC(C)Oc1ccc(-c2noc(CCn3nc(-c4ccc5c(c4)OCO5)ccc3=O)n2)cc1
39 | 735 s | CCCNC(=O)N1CCCN(C2=NS(=O)(=O)C(c3ccccc3)=C2C)CC1
40 | 560 s | Cc1cnc(C(=O)N2CCC(n3c(C)cnc3C3CCC3)C2)cn1 (stereo not drawn)
41 | 825 s | O=C(Nc1ccccc1)C12CC1/C(=N\O)c1ccccc1O2 (stereo not drawn)
42 | 718 s | Cc1ccc(C(O)CN2CCN(c3ccccc3C)CC2)cc1 (stereo not drawn)
43 | 705 s | CCCNC(=O)C1CCCN(c2nc3ncn(CC(=O)N4CCc5ccccc5C4)c(=O)c3s2)C1 (stereo not drawn)
44 | 672 s | O=C(CN1CCC(c2nc(-c3cccs3)no2)CC1)NCc1ccccc1

Row | RP-LC retention time | Compound
45 | 685 s | O=C(Cc1nnc2c(-c3nc(C4CC4)no3)cccn12)NC1CCCCC1
46 | 620 s | Cn1c(SCC(=O)c2ccc(F)cc2)nnc1-c1ccncc1
47 | 778 s | O=C(NC1CC1)c1ccc(OCC2CCCN2C(=O)c2cccc(F)c2)cc1 (stereo not drawn)
48 | 630 s | COc1ccc(C(O)CN2CCN(c3ccccc3)CC2)cc1 (stereo not drawn)
49 | 663 s | CC(=O)NCC1(O)CCCC(C)C1 (stereo not drawn)
50 | 644 s | COCCC(=O)N1CCCn2nc(-c3cccc(OC)c3)cc2C1
51 | 869 s | CCCNS(=O)(=O)c1cc(-c2nc(C)cs2)n(CC(=O)N2CCCCC2)c1
52 | 595 s | CS(=O)(=O)N(Cc1ccncc1)C1CN(S(=O)(=O)c2ccccc2)C1
53 | 713 s | CCC(C(=O)Nc1c(-c2ccc(OC)cc2)nc2cc(C)ccn12)c1ccccc1 (stereo not drawn)
54 | 848 s | Cc1cc(C)n(CC(O)COc2ccc(C(=O)c3ccc(Cl)cc3)cc2)n1 (stereo not drawn)
55 | 804 s | COc1ccc(CC(=O)Nc2ccc3c(c2)Sc2ncccc2C(=O)N3C)c(Cl)c1
56 | 661 s | COc1ccccc1N1CCN(C(=O)Cn2ncc3c(c2=O)N(C)C(=O)CS3)CC1
57 | 945 s | Cc1nc(-c2ccc3c(c2)n(CC(=O)NC2CCCCCCC2)c(=O)n3C(C)C)no1
58 | 575 s | CCCCC(=O)Nc1ccc2c(c1)nc(CN1CCN(C)CC1)n2C(C)C
59 | 638 s | O=C(Cc1c(F)cccc1Cl)NC1CCN(c2cc(-c3ccccc3)[nH]n2)C1 (stereo not drawn)
60 | 1000 s | Cc1cc(C)nc(NS(=O)(=O)c2ccc(Nc3nc(-c4ccc(F)c(C)c4)cs3)cc2)n1
61 | 769 s | Cc1oc(C2CCN(C(=O)c3cc(F)ccc3F)CC2)nc1C(=O)N1CCCC1
62 | 629 s | CCN1CCCn2nc(C3CCN(C(=O)c4n[nH]c5ccccc45)CC3)cc2C1=O
63 | 795 s | COc1ccc(NC(=O)C2CCN(C(=O)C3Sc4ccccc4NC3=O)CC2)cc1Cl (stereo not drawn)
64 | 605 s | O=C(c1ccnc(-c2cccs2)c1)N1CCN(c2ccccn2)CC1
65 | 589 s | Cc1nocc1C(=O)N1CCCn2ccnc2C1C1CCCC1 (stereo not drawn)
66 | 1040 s | C=C(C)CNc1nc(-c2ccccc2)c(-c2ccccc2)s1

Row | RP-LC retention time | Compound
67 | 597 s | CC1CCN(c2cc(-n3cnc(C(=O)N4CCN(C5CCCCC5)CC4)c3)ncn2)CC1
68 | 855 s | COc1ccc(-c2cc(=O)n3c4ccccc4n(CC(=O)NCc4ccco4)c3n2)cc1
69 | 836 s | Cc1cccc(NC(=O)N2CCC(n3cnc4c(C)cccc4c3=O)CC2)c1
70 | 775 s | Cc1noc(C)c1C1CCCN1C(=O)CCc1ccccc1 (stereo not drawn)
71 | 717 s | Cn1cc(-c2ccncc2)c(-c2ccc(OCc3ccc4ccccc4n3)cc2)n1
72 | 911 s | COC(=O)C1=CN(c2cccc(C)c2)c2cc(F)ccc2S1(=O)=O
73 | 1050 s | Cc1cccc(CN2C(=O)N(c3cccc(F)c3)c3ncccc3S2(=O)=O)c1
74 | 842 s | COCCn1cc2c3c(cccc31)CN(C(=O)NCc1ccc(F)cc1)CC2
75 | 949 s | Cc1nc(-c2cc(S(=O)(=O)N3CCC(C(=O)Nc4cccc(C#N)c4)CC3)c(C)s2)no1
76 | 704 s | CNC(=O)C1CCCN(c2nc3ncn(CC(=O)Nc4cccc(C(F)(F)F)c4)c(=O)c3s2)C1 (stereo not drawn)
77 | 946 s | CN1C(=O)C2CCCCN2c2ccc(C(=O)N3CCc4ccccc4C3)cc21 (stereo not drawn)
78 | 1080 s | COc1cc2c(c(O)c1OC)-c1c(cc(OC)c(OC)c1OC)CC(C)C(C)C2 (stereo not drawn)
79 | 758 s | CC(C)CCNC(=O)Cn1ccn2nc(-c3ccccc3)c(CO)c2c1=O
80 | 1330 s | Cc1cc(NC(=O)c2c(F)cccc2Cl)n(-c2nc(-c3ccccc3)cs2)n1
81 | 587 s | CC(=O)N1CCc2ccccc2C1C(=O)N1CCN(c2ccccn2)CC1 (stereo not drawn)
82 | 959 s | O=C(Nc1ccc(Cl)cc1)C(=O)c1cn(CC(=O)N2CCOCC2)c2ccccc12
83 | 970 s | COc1cccc(-c2ccc(=O)n(CCc3nc(-c4cccc(F)c4)no3)n2)c1
84 | 899 s | COc1ccc(-c2noc(C3CCCN3C(=O)C3CCC3)n2)cc1 (stereo not drawn)
85 | 963 s | CCOc1ccc(C2C(=O)N(C3CCCCCC3)CC(=O)N2Cc2ccco2)cc1OC (stereo not drawn)
86 | 842 s | CCc1ccc(NC(=O)C2CCCN2S(=O)(=O)c2cc3c(cc2C)NC(=O)C(C)O3)cc1 (stereo not drawn)
87 | 588 s | CCNc1cc(N2CCC(CCC(=O)NCC3CC3)CC2)ncn1

Row | Compound | RP-LC retention time
88 | Cc1ccccc1C(=O)N1CCC2(CC1)NCc1ccccc1-n1ccnc12 | 609 s
